How the values were obtained:
[1] = Luminescence data for pairs of compounds absorbing at the same wavelength and emitting at different wavelengths; assay type: physicochemical; conditions: for ε × 10^3 (M^−1 cm^−1) at 355 nm / ε × 10^3 (M^−1 cm^−1) at 405 nm / ε × 10^3 (M^−1 cm^−1) at λMax / Absorption λMax / Emission λMax: solvent not given
Source text: Referring now to Tables 2 to 4, there is provided luminescence data for pairs of compounds which are capable of absorbing at the same wavelength and emitting at different wavelengths.

[2] = Luminescent data (absorption, emission, quantum yield, brightness) in solvents; assay type: physicochemical
Source text: Referring now to Table 1, there is shown luminescent data for Compounds 1 to 6.

[3] = tested on: Huh-7 cells; conditions: 1 hr, Huh-7 cells labelled with CMFDA
Source text: To test the relative toxicity of tetrahydrofuran (THF) for liver cells, Huh-7 cells (hepatoma cell line used for a model of hepatocytes) were labelled with CMFDA (CellTracker Green, in DMSO, Invitrogen) and then treated with half log concentrations of THF (0.1%, 0.3%, 1%, 3%) for 1 hr. Cells were then imaged live using a Zeiss primovert fluorescence microscope.

[4] = Solubility (statements in words); assay type: physicochemical
[5] = tested on: human liver; conditions: 45 min, 1 μg/ml
Protocol: All fluorophores were testing using donated human tissue which had been previously rejected for transplantation. All reagents were diluted in pre-warmed Dulbecos Modified Eagles Medium (DMEM) or CO2-independent media (both Invitrogen) to working concentrations and then perfused into pieces of liver for 45 min. Membrane and nuclear dyes were used simultaneously to visualise other cellular structures within the liver. Tissues were then imaged using multiphoton microscopy (825 nm). All fluorophores were used at 1 μg/ml (giving 0.1% of vehicle, being DMSO or THF). Testing of TpOx-2-Nap (green fluorophore) was done using DMSO as a solvent. […] was used for comparison, having been perfused through a separate piece of tissue from the same donor.

[6] = Acetonitrile (ϵr 37.5, viscosity 0.38 cP)
[7] = Ethyl acetate (ϵr 6.0, viscosity 0.45 cP)
[8] = Octan-1-ol (ϵr 10.3, viscosity 7.36 cP)

SMILES	QY [1]	pSS (cm^−1) [1] [cm^−1]	pSS (nm) [1] [nm]	Absorption % Abs at 355 nm [1] [%]	Absorption % Abs at 405 nm [1] [%]	ε × 10^3 (M^−1 cm^−1) at 355 nm [1]	Absorption λmax [2, 6] [nm]	Emission λmax [2, 6] [nm]	pSS [2, 6] [cm^−1]	Φ [2, 6]	Absorption λmax [2, 7] [nm]	Brightness [2, 7] [M⁻¹ cm⁻¹]	Emission λmax [2, 7] [nm]	pSS [2, 7] [cm^−1]	Φ [2, 7]	Absorption λmax [2, 8] [nm]	Brightness [2, 8] [M⁻¹ cm⁻¹]	Emission λmax [2, 8] [nm]	pSS [2, 8] [cm^−1]	Φ [2, 8]	also measured
CCCCCOc1cc2c3cc(OCCCCC)c(OCCCCC)cc3c3c(cc(OCCCCC)c4oc(-c5ccc(OC)cc5)nc43)c2cc1OCCCCC [Compound 45, 8-(4-methoxyphenyl)-2,3,6,11,12-pentakis(pentyloxy)triphenyleno[1,2-d]oxazole]	0.40	14000	174	22	0	21 × 10^3 M^−1 cm^−1															ε × 10^3 (M^−1 cm^−1) at 405 nm [1]: 0 × 10^3 M^−1 cm^−1; ε × 10^3 (M^−1 cm^−1) at λMax [1]: 97 × 10^3 M^−1 cm^−1; Absorption λMax [1]: 270 nm; Emission λMax [1]: 444 nm
CCCCCOc1cc2c3cc(OCCCCC)c(OCCCCC)cc3c3c(cc(OCCCCC)c4oc(-c5ccc6cc7ccccc7cc6c5)nc43)c2cc1OCCCCC [Compound 5, 8-(anthracen-2-yl)-2,3,6,11,12-pentakis(pentyloxy)triphenyleno[1,2-d]oxazole]							270	592	20200	0.21 ± 0.02	272	53 ± 5	536	18100	0.51 ± 0.04	270	50 ± 5	526	18000	0.56 ± 0.05	
CCCCCOc1cc2c3cc(OCCCCC)c(OCCCCC)cc3c3c(cc(OCCCCC)c4oc(-c5ccc(C#N)cc5)nc43)c2cc1OCCCCC [Compound 12, 4-(2,3,6,11,12-pentakis(pentyloxy)triphenyleno[1,2-d]oxazol-8-yl)benzonitrile]	0.32	18800	286	12	14	13 × 10^3 M^−1 cm^−1															ε × 10^3 (M^−1 cm^−1) at 405 nm [1]: 14 × 10^3 M^−1 cm^−1; ε × 10^3 (M^−1 cm^−1) at λMax [1]: 103 × 10^3 M^−1 cm^−1; Absorption λMax [1]: 272 nm; Emission λMax [1]: 558 nm
CCCCCOc1cc2c3cc(OCCCCC)c(OCCCCC)cc3c3c(cc(OCCCCC)c4oc(-c5c6ccccc6cc6ccccc56)nc43)c2cc1OCCCCC [Compound 6, 8-(anthracen-9-yl)-2,3,6,11,12-pentakis(pentyloxy)triphenyleno[1,2-d]oxazole]							253	630	23650		253		594	22700		255		384	13200		
CCCCCOc1cc2c3cc(OCCCCC)c(OCCCCC)cc3c3c(cc(OCCCCC)c4oc(-c5cccc6ccccc56)nc43)c2cc1OCCCCC [Compound 4, 8-(naphthalen-1-yl)-2,3,6,11,12-pentakis(pentyloxy)triphenyleno[1,2-d]oxazole]							275	543	18000	0.36 ± 0.04	275	56 ± 5	510	16800	0.48 ± 0.04	275	67 ± 7	515	17000	0.55 ± 0.05	Brightness [2, 6]: 30 ± 3 M⁻¹ cm⁻¹
C1CCOC1 [THF, tetrahydrofuran]																					Toxicity for liver cells (cell culture compared to the reference) ([3]; 0.1% and 0.3% THF): no differences in the cell culture compared to the reference; Toxicity for liver cells (dead cells) ([3]; 1% and 3% THF): increasing number of dead cells
CCCCCOc1cc2c3cc(OCCCCC)c(OCCCCC)cc3c3c(cc(OCCCCC)c4oc(-c5ccc(N(C)C)cc5)nc43)c2cc1OCCCCC [Compound 22, N,N-dimethyl-4-(2,3,6,11,12-pentakis(pentyloxy)triphenyleno[1,2-d]oxazol-8-yl)aniline]	0.70	13150	150	54	2	39 × 10^3 M^−1 cm^−1															ε × 10^3 (M^−1 cm^−1) at 405 nm [1]: 1.5 × 10^3 M^−1 cm^−1; ε × 10^3 (M^−1 cm^−1) at λMax [1]: 72 × 10^3 M^−1 cm^−1; Absorption λMax [1]: 271 nm; Emission λMax [1]: 421 nm
CCCCCOc1cc2c3cc(OCCCCC)c(OCCCCC)cc3c3c(cc(OCCCCC)c4oc(-c5ccccc5)nc43)c2cc1OCCCCC [Compound 2, 2,3,6,11,12-pentakis(pentyloxy)-8-phenyltriphenyleno[1,2-d]oxazole]							270	492	16700	0.46 ± 0.04	270	51 ± 5	467	15600	0.46 ± 0.04	271	64 ± 6	473	15800	0.61 ± 0.06	Brightness [2, 6]: 38 ± 4 M⁻¹ cm⁻¹
CCCCCOc1cc2c3cc(OCCCCC)c(OCCCCC)cc3c3c(cc(OCCCCC)c4oc(-c5ccc6ccccc6c5)nc43)c2cc1OCCCCC [Compound 3, 8-(naphthalen-2-yl)-2,3,6,11,12-pentakis(pentyloxy)triphenyleno[1,2-d]oxazole]	0.55	16500	222	17	7	29 × 10^3 M^−1 cm^−1	273	524	17600	0.51 ± 0.05	272	92 ± 9	494	16500	0.55 ± 0.05	272	91 ± 9	497	16600	0.71 ± 0.07	Brightness [2, 6]: 44 ± 4 M⁻¹ cm⁻¹; ε × 10^3 (M^−1 cm^−1) at 405 nm [1]: 13 × 10^3 M^−1 cm^−1; ε × 10^3 (M^−1 cm^−1) at λMax [1]: 164 × 10^3 M^−1 cm^−1; Absorption λMax [1]: 272 nm; Emission λMax [1]: 494 nm; Solubility with DMSO as solvent ([4]; DMSO as a solvent, diluted in medium to 1 μg/ml): limited solubility; Uptake by hepatocytes [5]: Diffuse green fluorescence (12) was observed within the cytoplasm of the hepatocytes
CCCCCOc1cc2c(cc1OCCOCCOCCOC)c1cc(OCCOCCOCCOC)c(OCCOCCOCCOC)cc1c1cc(OCCOCCOCCOC)c3oc(C)nc3c21 [Compound 32, 2,3,6,12-tetrakis(2-(2-(2-methoxyethoxy)ethoxy)ethoxy)-8-methyl-11-(pentyloxy)triphenyleno[1,2-d]oxazole]																					Water solubility ([4]; water): water soluble
CCCCCOc1cc2c3cc(OCCCCC)c(OCCCCC)cc3c3c(cc(OCCCCC)c4oc(CCCC)nc43)c2cc1OCCCCC [Compound 1, 8-butyl-2,3,6,11,12-pentakis(pentyloxy)triphenyleno[1,2-d]oxazole]							281	367	8300	0.20 ± 0.02	281	29 ± 5	367	8300	0.18 ± 0.01	281	36 ± 7	367	8300	0.30 ± 0.03	Brightness [2, 6]: 12 ± 2 M⁻¹ cm⁻¹

— patent US20220357332A1, “TRIPHENYLENE DERIVATIVES FOR USE IN IMAGING BIOLOGICAL TISSUE OR FLUID” (CHROMATWIST LIMITED, priority 2019, published 2022)
